We go through 14 compounds from patent US9193714B2, “Fluorinated estrogen receptor modulators and uses thereof” (priority 2011, dated 2015).

One assay relates to MCF-7 cells. The assay is described as follows: Breast Cancer Cell Viability Assay (MCF7 Viability Assay). The format is cell-based. The note with it: for IC50: Homo sapiens, MCF7, 120 h, read-out: MCF7 Viability Assay IC50. As for the experimental part:
MCF-7 cells were adjusted to a concentration of 20,000 cells per mL in RPMI containing 10% FBS and 20 mM HEPES. 16 microliters of the cell suspension (320 cells) was added to each well of a 384 well plate, and the cells were incubated overnight to allow the cells to adhere. The following day an eleven point, serial semilog dilution of each compound was added to the cells in 16 μL at a final concentration ranging from 0.3-0.000003 μM. After 5 days' compound exposure, 16 μL of CellTiter-GLo (Promega, Madison Wis.) was added to the cells the relative luminescence units (RLUs) of each well was determined. CellTiter-Glo added to 32 μL of medium without cells was used to obtain a background value. The Percent viability of each sample was determined as follows: (RLU sample-RLU background/RLU untreated cells-RLU background)×100=% viability.

A further assay concerns the target T1, ER-α (Homo sapiens, UniProt P03372).
T1 construct: endogenous in cells; host or cells: MCF-7
Description: Breast Cancer Cell ER-α in Cell Western Assay (SP1). The format is cell-based. Particulars: MCF7, read-out: ER In-Cell Western Assay (SP1); Max Response. As to the method: MCF-7 cells were adjusted to a concentration of 200,000 cells per mL in RPMI containing 10% charcoal-stripped FBS and 20 mM HEPES. 16 microliters of the cell suspension (3200 cells) was added to each well of a poly-D-lysine 384 well plate, and the cells were incubated overnight to allow the cells to adhere. The following day an eleven point, serial semilog dilution of each compound was added to the cells in 16 μL at a final concentration ranging from 0.3-0.000003 μM. At 4 or 24 hr post compound addition, the cells were fixed (10% formalin in PBS) for 20 minutes. Cells were permeablized in PBS 0.1% Triton and blocked with LICOR blocking buffer (50 μl/well, 90′). The wells were then incubated overnight at 4° C. with SP1 rabbit monoclonal Ab (Thermo Scientific) diluted 1:1000 in LICOR blocking buffer/0.1% Tween-20. Wells which were treated with blocking buffer with Tween but no antibody were used as a background control. Wells were washed with 0.1% Tween-20/PBS and then incubated in goat anti-rabbit IRDye™ 800 CW (LICOR Inc.; 1:1000) and DRAQ5 DNA dye (1:2000 for 2 mM stock) diluted in LICOR blocking buffer containing 0.1% Tween-20 and 0.01% SDS for 60 minutes. Cells were washed (50 μl/well, 5′ each) in 0.1% Tween-20/PBS. Plates were scanned on a LICOR Odyssey infrared imaging system. Integrated intensities in the 800 nm channel and 700 nm channel were measured to determine levels of ER and DNA respectively. Percent ER levels were determined as follows: (Integrated intensity 800 nm sample/integrated intensity 700 nm sample)/(Integrated intensity 800 nm untreated cells/integrated intensity 700 nm untreated cells)×100=% ER levels.

Where [1] appears, read: MCF-7 cells, 5 days' compound exposure, CellTiter-Glo.

Read-outs that look alike come from different tables or passages of the source.

T1 sequence (P03372 whole entry): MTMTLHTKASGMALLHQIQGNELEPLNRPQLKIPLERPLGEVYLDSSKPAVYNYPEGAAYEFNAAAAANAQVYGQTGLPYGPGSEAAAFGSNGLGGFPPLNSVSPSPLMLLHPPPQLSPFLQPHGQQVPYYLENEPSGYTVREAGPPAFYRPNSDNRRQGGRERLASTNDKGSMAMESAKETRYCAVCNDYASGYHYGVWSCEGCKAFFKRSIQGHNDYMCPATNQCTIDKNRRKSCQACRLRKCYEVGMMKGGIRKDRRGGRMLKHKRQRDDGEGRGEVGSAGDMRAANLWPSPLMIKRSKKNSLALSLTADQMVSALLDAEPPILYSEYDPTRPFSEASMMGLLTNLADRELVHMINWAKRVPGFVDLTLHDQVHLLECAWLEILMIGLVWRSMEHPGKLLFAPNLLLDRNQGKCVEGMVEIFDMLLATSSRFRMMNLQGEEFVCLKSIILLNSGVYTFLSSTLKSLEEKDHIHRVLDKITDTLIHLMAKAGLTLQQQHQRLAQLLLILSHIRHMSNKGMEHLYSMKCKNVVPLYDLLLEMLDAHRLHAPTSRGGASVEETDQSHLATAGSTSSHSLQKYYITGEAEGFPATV

On to `CC1=C(c2cc(O)ccc2F)C(c2ccc(OC[C@H](C)N3CC[C@@H](CF)C3)cc2)Oc2ccc(O)cc21` (stereo partly drawn) [Example 14, 3-(2-Fluoro-5-hydroxyphenyl)-2-(4-((S)-2-((R)-3-(fluoromethyl)pyrrolidin-1-yl)propoxy)phenyl)-4-methyl-2H-chromen-6-ol], for which, in the assay with MCF-7 cells (setting [1]), the IC50 is less than 1 nM and the “MCF7 Viability Assay Max Response” value is “++ (a single % value ≧ 50%)”. The Emax on ER-α is greater than 85%.
In the same order, the values of `CC1=C(c2ccc(Cl)cc2)C(c2ccc(OC[C@H](C)N3CC[C@@H](CF)C3)cc2)Oc2ccc(O)cc21` (stereo partly drawn) [Example 15, 3-(4-Chlorophenyl)-2-(4-((S)-2-((R)-3-(fluoromethyl)pyrrolidin-1-yl)propoxy)phenyl)-4-methyl-2H-chromen-6-ol] are greater than 1 nM, “++ (a single % value ≧ 50%)” and greater than 85%.
On the same counts, the results for `CC1=C(c2ccc(C#N)cc2)C(c2ccc(OC[C@H](C)N3CC[C@@H](CF)C3)cc2)Oc2ccc(O)cc21` (stereo partly drawn) [Example 16] are greater than 1 nM, “++ (a single % value ≧ 50%)” and greater than 85%.
In the same order, the values of `CC1=C(c2cccc(O)c2)C(c2ccc(OCCN3CCC(F)CC3)cc2)Oc2ccc(O)cc21` (stereo not drawn) [Example 17, 2-(4-(2-(4-Fluoropiperidin-1-yl)ethoxy)phenyl)-3-(3-hydroxyphenyl)-4-methyl-2H-chromen-6-ol] are less than 1 nM, “++ (a single % value ≧ 50%)” and 60 to 85%.
Regarding `CC1=C(c2cccc(O)c2)C(c2ccc(OCCN3CCC[C@H]3CF)cc2)Oc2ccc(O)cc21` (stereo partly drawn) [Example 18, 2-(4-(2-((S)-2-(Fluoromethyl)pyrrolidin-1-yl)ethoxy)phenyl)-3-(3-hydroxyphenyl)-4-methyl-2H-chromen-6-ol], the concentration for half-maximal inhibition (IC50) with MCF-7 cells was greater than 1 nM. Besides, the “MCF7 Viability Assay Max Response” value in the assay on MCF-7 cells (setting [1]) is “++ (a single % value ≧ 50%)”. The Emax on ER-α was 60 to 85%.
Take `CC1=C(c2cccc(O)c2)C(c2ccc(OCCN3CCC[C@@H](CF)C3)cc2)Oc2ccc(O)cc21` (stereo partly drawn) [Example 20, 2-(4-(2-((R)-3-(Fluoromethyl)piperidin-1-yl)ethoxy)phenyl)-3-(3-hydroxyphenyl)-4-methyl-2H-chromen-6-ol]: in the assay with MCF-7 cells (setting [1]), the half-maximal inhibitory concentration (IC50) was less than 1 nM and the “MCF7 Viability Assay Max Response” value is recorded as “+ (a single % value < 50%)”. At ER-α, the Emax was less than 60%.
On to `CC1=C(c2cccc(O)c2)C(c2ccc(OCCN3CC[C@@H](C(F)F)C3)cc2)Oc2ccc(O)cc21` (stereo partly drawn) [Example 21, (R)-2-(4-(2-(3-(Difluoromethyl)pyrrolidin-1-yl)ethoxy)phenyl)-3-(3-hydroxyphenyl)-4-methyl-2H-chromen-6-ol], for which the IC50 in the assay with MCF-7 cells is less than 1 nM. Also, in the assay with MCF-7 cells (setting [1]), the “MCF7 Viability Assay Max Response” value is listed as “++ (a single % value ≧ 50%)”. In addition, the Emax at ER-α is greater than 85%.
Regarding `CC1=C(c2cccc(O)c2)C(c2ccc(OCCN(C)CCCF)cc2)Oc2ccc(O)cc21` (stereo not drawn) [Example 22, 2-(4-(2-((3-Fluoropropyl)(methyl)amino)ethoxy)phenyl)-3-(3-hydroxyphenyl)-4-methyl-2H-chromen-6-ol], in the assay on MCF-7 cells (setting [1]), the concentration for half-maximal inhibition (IC50) was less than 1 nM and the “MCF7 Viability Assay Max Response” value is “+ (a single % value < 50%)”. At ER-α, the Emax is less than 60%.
In the same order, the values of `CCN(CCF)CCOc1ccc(C2Oc3ccc(O)cc3C(C)=C2c2cccc(O)c2)cc1` (stereo not drawn) [Example 23, 2-(4-(2-(Ethyl(2-fluoroethyl)amino)ethoxy)phenyl)-3-(3-hydroxyphenyl)-4-methyl-2H-chromen-6-ol] are greater than 1 nM, “++ (a single % value ≧ 50%)” and less than 60%.
On the same counts, the results for `CCN(CCCF)CCOc1ccc(C2Oc3ccc(O)cc3C(C)=C2c2cccc(O)c2)cc1` (stereo not drawn) [Example 24, 2-(4-(2-(Ethyl(3-fluoropropyl)amino)ethoxy)phenyl)-3-(3-hydroxyphenyl)-4-methyl-2H-chromen-6-ol] are less than 1 nM, “++ (a single % value ≧ 50%)” and less than 60%.
On the same counts, the results for `CCN(CCOc1ccc(C2Oc3ccc(O)cc3C(C)=C2c2cccc(O)c2)cc1)CCC(F)(F)F` (stereo not drawn) [Example 25, 2-(4-(2-(Ethyl(3,3,3-trifluoropropyl)amino)ethoxy)phenyl)-3-(3-hydroxyphenyl)-4-methyl-2H-chromen-6-ol] are greater than 1 nM, “+ (a single % value < 50%)” and less than 60%.
Turning to `CC1=C(c2ccc(F)cc2)C(c2ccc(OCCN3CC[C@@H](CF)C3)cc2)Oc2ccc(O)cc21` (stereo partly drawn) [Example 26, 2-(4-(2-((R)-3-(Fluoromethyl)pyrrolidin-1-yl)ethoxy)phenyl)-3-(4-fluorophenyl)-4-methyl-2H-chromen-6-ol], in the assay with MCF-7 cells (setting [1]), the concentration for half-maximal inhibition (IC50) was greater than 1 nM and the “MCF7 Viability Assay Max Response” value is listed as “++ (a single % value ≧ 50%)”. The Emax at ER-α is greater than 85%.
In the same order, the values of `CC1=C(c2ccc(F)cc2)C(c2ccc(OC[C@H](C)N3CC[C@@H](CF)C3)cc2)Oc2ccc(O)cc21` (stereo partly drawn) [Example 27] are greater than 1 nM, “++ (a single % value ≧ 50%)” and greater than 85%.
On the same counts, the results for `Cc1c(-c2ccc(O)cc2)n(Cc2ccc(OCCN3CC[C@@H](CF)C3)cc2)c2ccc(O)cc12` [Example 28, (R)-1-(4-(2-(3-(Fluoromethyl)pyrrolidin-1-yl)ethoxy)benzyl)-2-(4-hydroxyphenyl)-3-methyl-1H-indol-5-ol] are less than 1 nM, “++ (a single % value ≧ 50%)” and greater than 85%.
